Earlier results, collected in patent US20250064971A1, “SUSTAINED RELEASE FORMULATIONS AND METHODS OF USE THEREOF” (VIRGINIA COMMONWEALTH UNIVERSITY, priority 2022, published 2025).

Target: hERG (Homo sapiens, UniProt Q12809)
Settings: compared to LAAM

hERG, sequence (Q12809 whole entry): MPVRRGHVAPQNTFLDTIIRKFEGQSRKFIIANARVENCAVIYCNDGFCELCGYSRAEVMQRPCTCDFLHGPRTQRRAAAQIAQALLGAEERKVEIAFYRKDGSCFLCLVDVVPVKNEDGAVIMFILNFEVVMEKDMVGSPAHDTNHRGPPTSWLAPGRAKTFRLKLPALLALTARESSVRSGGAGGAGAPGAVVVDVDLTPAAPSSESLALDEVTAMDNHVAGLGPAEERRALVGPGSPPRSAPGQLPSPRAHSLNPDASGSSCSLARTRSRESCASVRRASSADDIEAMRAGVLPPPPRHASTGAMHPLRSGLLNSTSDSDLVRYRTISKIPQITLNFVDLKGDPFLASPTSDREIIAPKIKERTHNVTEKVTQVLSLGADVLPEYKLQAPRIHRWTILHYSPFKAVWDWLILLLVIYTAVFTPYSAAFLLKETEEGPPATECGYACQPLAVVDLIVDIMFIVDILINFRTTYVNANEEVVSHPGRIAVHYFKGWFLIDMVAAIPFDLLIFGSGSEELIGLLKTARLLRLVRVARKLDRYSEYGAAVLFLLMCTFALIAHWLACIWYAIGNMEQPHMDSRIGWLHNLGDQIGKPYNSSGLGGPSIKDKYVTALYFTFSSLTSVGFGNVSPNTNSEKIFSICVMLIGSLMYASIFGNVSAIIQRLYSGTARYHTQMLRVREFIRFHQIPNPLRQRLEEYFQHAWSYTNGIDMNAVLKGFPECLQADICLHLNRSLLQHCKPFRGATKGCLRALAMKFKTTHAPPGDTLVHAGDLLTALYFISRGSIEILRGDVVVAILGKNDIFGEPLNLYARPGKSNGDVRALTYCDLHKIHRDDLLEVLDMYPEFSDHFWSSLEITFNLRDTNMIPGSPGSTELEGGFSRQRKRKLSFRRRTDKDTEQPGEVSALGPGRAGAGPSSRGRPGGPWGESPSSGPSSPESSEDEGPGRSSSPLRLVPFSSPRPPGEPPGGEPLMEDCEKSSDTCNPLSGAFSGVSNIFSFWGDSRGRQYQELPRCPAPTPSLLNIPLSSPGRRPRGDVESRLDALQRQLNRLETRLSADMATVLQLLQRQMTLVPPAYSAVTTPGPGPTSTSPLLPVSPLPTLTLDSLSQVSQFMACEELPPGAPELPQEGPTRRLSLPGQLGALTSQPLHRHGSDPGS

CCC(OC(C)=O)C(CC(C)NC)(c1ccccc1)c1ccccc1 (stereo not shown) [nor-LAAM]
hERG inhibition IC50 (comparison in words): higher hERG inhibition IC50 than LAAM
